Measurements taken from patent US11098056B2, “UDP glycosyltransferase inhibitors and methods of use” (GENZYME CORPORATION, priority 2018, dated 2021).

Target: T1, UGT8 (Homo sapiens, UniProt Q16880)
T1 construct: host or cells: OE19 cells
T1 sequence (Q16880 21-541): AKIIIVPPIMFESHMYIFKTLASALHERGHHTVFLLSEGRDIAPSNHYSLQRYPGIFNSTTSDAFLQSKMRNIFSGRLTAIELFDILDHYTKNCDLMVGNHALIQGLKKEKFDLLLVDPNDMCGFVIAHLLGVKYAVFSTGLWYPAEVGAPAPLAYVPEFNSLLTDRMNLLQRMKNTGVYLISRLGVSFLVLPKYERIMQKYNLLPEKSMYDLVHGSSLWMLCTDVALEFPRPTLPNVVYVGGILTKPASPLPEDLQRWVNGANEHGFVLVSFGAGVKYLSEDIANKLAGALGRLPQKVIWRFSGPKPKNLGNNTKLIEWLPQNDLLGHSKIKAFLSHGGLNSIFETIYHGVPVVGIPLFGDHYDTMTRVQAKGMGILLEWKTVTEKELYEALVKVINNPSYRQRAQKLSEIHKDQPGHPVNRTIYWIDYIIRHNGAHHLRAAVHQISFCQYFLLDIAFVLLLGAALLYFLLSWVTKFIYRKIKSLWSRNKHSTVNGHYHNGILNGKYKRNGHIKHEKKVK
Test: In vitro sulfatide (SFT) synthesis inhibition in OE19 cells, LC-MS/MS readout
Assay type: cell-based
Conditions: 72 hr, sulfatide by LC-MS/MS, read-out: Potency range (IC50, In-vitro SFT)
Experimental: For medium throughput screening, library compounds were dispensed into CellBIND 384 well plates to a final concentration of 10 μM. OE19 cells (Sigma) were grown in to 70-90% confluency in RPMI 1640+L-glutamine and […]; were trypsinized to achieve suspension and were aliquoted at 2,500 cells/well, total well volume 50 μl. Plates were incubated 72 hr at 37° C. in 5% CO2; supernatant was removed and plates were dried, heat-sealed and stored at −20° C. until analysis.
For IC50 determinations, the same procedure was followed except that test compounds were added to the plate as dose-downs in triplicate to yield concentration response curves.
Mass Spectrometer Analysis of Sulfatide (SFT):
Assay plates were thawed and 85 μl mobile phase B (5 mM ammonium formate^+0.2% formic acid in 50:50 methanol:acetonitrile). Fifteen μl 20 ng/ml C17 SFT in mobile phase B was added as an internal standard.
SFT was analyzed using an Applied Biosystems API-4000 triple quad mass spectrometer interfaced to a Thermo Scientific Multiplex system (LX-4) equipped with four pumps. Chromatography of OE19 cell samples or 2B5-mouse cells treated with compounds was performed using a Waters Acquity UPLC BEH C8 2.1×50 mm column with 1.7 um particle size. The chromatography was performed using the following mobile phases. Mobile phase A (MPA): 0.2% formic acid and 5 mM ammonium formate in deionized water; MPB: see above. The LC method was run in isocratic mode for 4 sequentially running columns using 95% MPB and 5% MPA with flow rate of 1 ml/min and a column temperature of 60° C.
The Triple quad mass spectrometer was run in Negative Ionization mode monitoring the following MRM transitions and using the following parameters:
Electrospray voltage was […], and source temperature was 550° C.

| SMILES | IC50 [µM] |
| --- | --- |
| CNC(=O)c1csc2c(C(F)(F)F)cc(N3CCC(OC(=O)N4CCC4)CC3)nc12 [Example 60, 1-(3-(Methylcarbamoyl)-7-(trifluoromethyl)thieno[3,2-b]pyridin-5-yl)piperidin-4-yl azetidine-1-carboxylate] | < 0.1 |
| CC[C@H](C)NC(=O)OC1CCN(c2cc(C(F)(F)F)c3scc(C(=O)NC)c3n2)CC1 [Example 63, 1-(3-(Methylcarbamoyl)-7-(trifluoromethyl)thieno[3,2-b]pyridin-5-yl)piperidin-4-yl (S)-sec-butylcarbamate] | < 0.1 |
| CNC(=O)c1csc2c(C(F)(F)F)cc(N3CCC(OC(=O)N4CC(OC(F)F)C4)CC3)nc12 [Example 87, 1-(3-(Methylcarbamoyl)-7-(trifluoromethyl)thieno[3,2-b]pyridin-5-yl)piperidin-4-yl 3-(difluoromethoxy)azetidine-1-carboxylate] | < 0.1 |
| CNC(=O)c1csc2c(C(F)(F)F)cc(N3CCC(OC(=O)N4CC(OC(F)(F)F)C4)CC3)nc12 [Example 88, 1-(3-(Methylcarbamoyl)-7-(trifluoromethyl)thieno[3,2-b]pyridin-5-yl)piperidin-4-yl 3-(trifluoromethoxy)azetidine-1-carboxylate] | < 0.1 |
| CNC(=O)c1csc2c(C(F)(F)F)cc(N3CCC(OC(=O)NC(C)C)C(F)(F)C3)nc12 (stereo not drawn) [Example 91, 3,3-Difluoro-1-(3-(methylcarbamoyl)-7-(trifluoromethyl)thieno[3,2-b]pyridin-5-yl)piperidin-4-yl isopropylcarbamate] | < 0.1 |
| CNC(=O)c1csc2c(C(F)(F)F)cc(N3CCC(OC(=O)N4CCn5nccc5C4)CC3)nc12 [Example 95, 1-(3-(Methylcarbamoyl)-7-(trifluoromethyl)thieno[3,2-b]pyridin-5-yl)piperidin-4-yl 6,7-dihydropyrazolo[1,5-a]pyrazine-5(4H)-carboxylate] | < 0.1 |
| CNC(=O)c1csc2c(C(F)(F)F)cc(N3CCC(OC(=O)NCC4CN(C)CCO4)CC3)nc12 (stereo not drawn) [Example 115, 1-(3-(Methylcarbamoyl)-7-(trifluoromethyl)thieno[3,2-b]pyridin-5-yl)piperidin-4-yl ((4-methylmorpholin-2-yl)methyl)carbamate] | > 1 |
| CNC(=O)c1csc2ccc(N3CCC(OC(=O)N[C@@H](C)COC(F)(F)F)CC3)nc12 [Example 142, 1-(3-(Methylcarbamoyl)thieno[3,2-b]pyridin-5-yl)piperidin-4-yl (S)-(1-(trifluoromethoxy)propan-2-yl)carbamate] | < 0.1 |
| CNC(=O)c1csc2c(C(F)(F)F)cc(N3CCC(Oc4cccc(C)n4)CC3)nc12 [Example 145, N-Methyl-5-(4-((6-methylpyridin-2-yl)oxy)piperidin-1-yl)-7-(trifluoromethyl)thieno[3,2-b]pyridine-3-carboxamide] | < 0.1 |
| CNC(=O)c1csc2c(C(F)(F)F)c(C)c(N3CCC(OC(=O)N[C@@H](C)C4CC4)CC3)nc12 [Example 151, 1-(6-Methyl-3-(methylcarbamoyl)-7-(trifluoromethyl)thieno[3,2-b]pyridin-5-yl)piperidin-4-yl (S)-(1-cyclopropylethyl)carbamate] | < 0.1 |
| CNC(=O)c1csc2c(C(F)(F)F)cc(OC3CCN(C(=O)OCCOC(F)(F)F)CC3)nc12 [Example 171, 2-(Trifluoromethoxy)ethyl 4-((3-(methylcarbamoyl)-7-(trifluoromethyl)thieno[3,2-b]pyridin-5-yl)oxy)piperidine-1-carboxylate] | < 0.1 |
| CNC(=O)c1csc2c(C(F)(F)F)cc(O[C@@H]3CCN(C(=O)O[C@@H](C)COC(F)(F)F)[C@H](C)C3)nc12 [Example 175, (S)-1-(Trifluoromethoxy)propan-2-yl (2R,4R)-2-methyl-4-((3-(methylcarbamoyl)-7-(trifluoromethyl)thieno[3,2-b]pyridin-5-yl)oxy)piperidine-1-carboxylate] | < 0.1 |
